Experimental data reported in ChEMBL document CHEMBL5126521, “Analgesic Opioid Ligand Discovery Based on Nonmorphinan Scaffolds Derived from Natural Sources” (J Med Chem, 2022).
Bridge positions count the residues as written; N and C are the ends. Square brackets hold non-standard residues; d marks the D form. Peptide text beside a SMILES is read from it. ξ: configuration not given here. d2Nal = N[C@H](Cc1ccc2ccccc2c1)C(=O)O; Dmt = Cc1cc(O)cc(C)c1C[C@H](N)C(=O)O; ξGly(octyl) = CCCCCCCCC(N)C(=O)O; Tic = O=C(O)[C@@H]1Cc2ccccc2CN1

Columns and labels:
[1] = target: T1, Kappa-type opioid receptor (Rattus norvegicus, UniProt P34975); assay: Inhibition of Wistar rat brain membrane KOP; format: cell membranes
[2] = test system: Mus musculus; assay: Antinociceptive activity in Swiss albino mouse assessed tail flick response in warm water administered icv; format: functional
[3] = Half life in mouse liver microsomes; format: ADME, Microsome
[4] = test system: Mus musculus; assay: Antinociceptive activity in icv dosed C57BL/6J mouse assessed as tail withdrawal latency from warm water; format: functional
[5] = target: T2, Mu-type opioid receptor (Homo sapiens, UniProt P35372); assay: Displacement of [3H]DAMGO from MOP (unknown origin) stably expressed in CHO cell membrane incubated for 90 mins by scintillation counter analysis; format: cell membranes
[6] = target: T3, Kappa-type opioid receptor (Homo sapiens, UniProt P41145); assay: Displacement of [3H]diprenorphine from KOP (unknown origin) stably expressed in CHO cell membrane incubated for 90 mins by scintillation counter analysis; format: cell membranes
[7] = target: T2, Mu-type opioid receptor; assay: Agonist activity at MOP in human SH-SY5Y cells assessed as forskolin stimulated cAMP accumulation incubated for 30 mins by Biotrak-EIA kit method; format: functional, cell-based
[8] = test system: Rattus norvegicus; assay: Antinociceptive activity in Sprague-Dawley rat assessed as tail flick response in warm water administered iv; format: functional
[9] = Degradation half life in rat brain homogenate; format: ADME, tissue-based
[10] = target: T1, Kappa-type opioid receptor; assay: Displacement of [3H]-norBNI from Wistar rat brain membrane KOP; format: cell membranes
[11] = Toxicity in icv dosed C57BL/6J mouse assessed as antinociceptive activity tolerance; format: organism-based; conditions: in vivo, icv_or_intrathecal
[12] = target: T4, Delta-type opioid receptor (Homo sapiens, UniProt P41143); assay: Displacement of [3H]DPDPE from DOP (unknown origin) stably expressed in CHO cell membrane incubated for 90 mins by scintillation counter analysis; format: cell membranes
[13] = target: T1, Kappa-type opioid receptor; assay: Displacement of [3H]diprenorphine from rat KOP stably expressed in CHO cell membrane; format: cell membranes
[14] = target: T3, Kappa-type opioid receptor; assay: Antagonist activity at human KOP stably expressed in CHO cell membrane assessed as [35S]GTPgammaS binding; format: functional, cell membranes
[15] = target: T2, Mu-type opioid receptor; assay: Antagonist activity at human MOP stably expressed in CHO cell membrane assessed as [35S]GTPgammaS binding; format: functional, cell membranes
[16] = Stability in mouse serum assessed as half life; format: ADME, cell-free
[17] = Stability in rat brain homogenate assessed as compound remaining measured after 90 mins relative to control; format: ADME, tissue-based; conditions: read-out: Stability
[18] = Stability in rat brain homogenate assessed as half life; format: ADME, tissue-based
[19] = target: T4, Delta-type opioid receptor; assay: Displacement of [3H]DPDPE from human DOP expressed in CHO-K1 cell membrane incubated for 60 mins by Microscint-counting analysis; format: cell membranes
[20] = test system: Rattus norvegicus; assay: Antinociceptive activity in Sprague-Dawley rat assessed as tail flick response in warm water administered icv; format: functional
[21] = target: T2, Mu-type opioid receptor; assay: Agonist activity at human MOP expressed in CHO-K1 cell membrane assessed as [35S]GTPgammaS binding relative to control; format: functional, cell membranes; conditions: filed as agonist
[22] = target: T2, Mu-type opioid receptor; assay: Displacement of [3H]DAMGO from human MOP expressed in CHO-K1 cell membrane incubated for 60 mins by Microscint-counting analysis; format: cell membranes
[23] = target: T2, Mu-type opioid receptor; assay: Agonist activity at human MOP expressed in CHO-K1 cell membrane assessed as [35S]GTPgammaS binding; format: functional, cell membranes
[24] = target: T4, Delta-type opioid receptor; assay: Binding affinity to DOP (unknown origin)
[25] = test system: Mus musculus; assay: Antinociceptive activity in Kunming mouse assessed as heat paw withdrawal measured after 10 secs administered icv; format: functional; conditions: time 10 sec, 10 s
[26] = target: T2, Mu-type opioid receptor; assay: Binding affinity to MOP (unknown origin)
[27] = target: T3, Kappa-type opioid receptor; assay: Binding affinity to human KOP stably expressed in CHO cell membrane assessed as [35S]GTPgammaS binding; format: cell membranes; conditions: filed as antagonist
[28] = test system: Mus musculus; assay: Antinociceptive activity in po dosed C57BL/6J mouse assessed as tail withdrawal latency from warm water; format: functional
[29] = target: Delta-type opioid receptor (Mus musculus, UniProt P32300); assay: Displacement of [3H]DPDPE from mouse DOP stably expressed in CHO cell membrane; format: cell membranes
Delta-type opioid receptor (Mus musculus, UniProt P32300), sequence (P32300 whole entry): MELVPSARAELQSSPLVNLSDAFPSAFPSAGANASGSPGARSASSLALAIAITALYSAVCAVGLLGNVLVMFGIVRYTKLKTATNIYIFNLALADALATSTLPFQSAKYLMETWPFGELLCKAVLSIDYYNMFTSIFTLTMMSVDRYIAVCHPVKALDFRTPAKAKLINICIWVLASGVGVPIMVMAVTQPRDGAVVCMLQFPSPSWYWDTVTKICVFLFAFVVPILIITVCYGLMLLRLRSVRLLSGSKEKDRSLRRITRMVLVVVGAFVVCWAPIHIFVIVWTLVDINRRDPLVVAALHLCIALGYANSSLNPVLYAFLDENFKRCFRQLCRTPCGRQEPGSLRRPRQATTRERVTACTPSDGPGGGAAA

T2 sequence (P35372 whole entry): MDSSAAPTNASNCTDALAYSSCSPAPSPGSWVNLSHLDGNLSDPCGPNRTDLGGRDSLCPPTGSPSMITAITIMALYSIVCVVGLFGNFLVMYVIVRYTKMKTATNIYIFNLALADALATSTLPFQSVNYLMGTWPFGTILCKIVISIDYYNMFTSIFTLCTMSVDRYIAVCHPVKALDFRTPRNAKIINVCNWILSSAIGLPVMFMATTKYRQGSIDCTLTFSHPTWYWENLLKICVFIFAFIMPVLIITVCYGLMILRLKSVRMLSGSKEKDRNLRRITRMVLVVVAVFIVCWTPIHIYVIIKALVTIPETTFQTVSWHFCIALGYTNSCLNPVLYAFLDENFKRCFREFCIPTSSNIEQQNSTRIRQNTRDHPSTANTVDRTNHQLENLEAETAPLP
T3 sequence (P41145 whole entry): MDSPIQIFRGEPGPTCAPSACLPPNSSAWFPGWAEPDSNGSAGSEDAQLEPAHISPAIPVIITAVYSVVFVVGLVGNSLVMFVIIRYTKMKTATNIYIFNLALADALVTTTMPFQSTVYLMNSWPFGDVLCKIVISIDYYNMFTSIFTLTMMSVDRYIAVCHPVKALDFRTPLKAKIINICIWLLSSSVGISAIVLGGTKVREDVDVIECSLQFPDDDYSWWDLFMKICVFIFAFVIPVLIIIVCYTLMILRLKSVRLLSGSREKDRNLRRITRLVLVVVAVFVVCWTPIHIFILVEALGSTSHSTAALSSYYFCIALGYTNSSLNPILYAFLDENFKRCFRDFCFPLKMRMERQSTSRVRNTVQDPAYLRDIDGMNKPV
T4 sequence (P41143 whole entry): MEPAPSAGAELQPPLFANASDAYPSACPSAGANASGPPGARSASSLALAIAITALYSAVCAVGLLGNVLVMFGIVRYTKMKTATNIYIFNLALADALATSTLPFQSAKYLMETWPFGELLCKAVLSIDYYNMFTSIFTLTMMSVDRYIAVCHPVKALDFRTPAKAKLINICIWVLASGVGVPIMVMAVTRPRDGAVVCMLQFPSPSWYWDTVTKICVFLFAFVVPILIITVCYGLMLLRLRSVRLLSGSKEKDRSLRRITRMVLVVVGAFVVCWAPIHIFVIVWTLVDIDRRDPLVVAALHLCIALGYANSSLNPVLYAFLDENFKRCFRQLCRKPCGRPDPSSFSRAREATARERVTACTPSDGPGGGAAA
T1 sequence (P34975 whole entry): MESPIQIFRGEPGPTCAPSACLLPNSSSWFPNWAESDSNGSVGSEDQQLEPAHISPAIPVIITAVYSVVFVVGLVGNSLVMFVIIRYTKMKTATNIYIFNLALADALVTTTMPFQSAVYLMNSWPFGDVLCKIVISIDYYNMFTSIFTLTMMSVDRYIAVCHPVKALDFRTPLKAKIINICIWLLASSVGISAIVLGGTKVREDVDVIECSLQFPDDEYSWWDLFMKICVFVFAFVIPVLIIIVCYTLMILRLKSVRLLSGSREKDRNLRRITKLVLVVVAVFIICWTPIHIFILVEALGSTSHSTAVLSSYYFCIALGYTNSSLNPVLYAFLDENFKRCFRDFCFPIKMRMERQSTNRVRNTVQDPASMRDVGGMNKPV

SMILES: NC(=O)[C@@H]1CC(=O)NCCCC[C@@H](NC(=O)[C@@H](N)Cc2ccc(O)cc2)C(=O)N[C@@H](Cc2ccccc2)C(=O)N[C@@H](Cc2ccccc2)C(=O)N1 (H-Y[dK]FFD-NH2; lactam 2-5)
- IC50 [1]: 2.36 nM
- ED50 [2]: 0.06 nmol

SMILES: O=C1N[C@H](Cc2c[nH]c3ccccc23)C(=O)N[C@H](Cc2ccccc2)C(=O)N2CCC[C@@H]2C(=O)N[C@H]1Cc1ccccc1
- half-life [3]: ≤ 30 min
- ED50 [4]: 2.39 nmol
- Ki [5]: > 100000 nM
- Ki [6]: > 100000 nM

SMILES: CCCCCCCCC(N)C(=O)N[C@@H](Cc1c(C)cc(O)cc1C)C(=O)N1CCC[C@H]1C(=O)N[C@@H](Cc1c[nH]c2ccccc12)C(=O)N[C@@H](Cc1ccccc1)C(N)=O (some centres not stated) (H-[ξGly(octyl)][Dmt]PWF-NH2)
- EC50 [7]: 1.3 nM
- ED50 [8]: 1 µmol/kg

SMILES: Cc1cc(O)cc(C)c1C[C@H](N)C(=O)N1Cc2ccccc2C[C@H]1C(=O)N[C@@H](Cc1ccccc1)C(=O)N[C@@H](Cc1ccccc1)C(N)=O (H-[Dmt][Tic]FF-NH2)
- half-life [9]: 6.1 min

SMILES: Cc1cc(O)cc(C)c1C[C@H](N)C(=O)N[C@@H]1CCCCNC(=O)C[C@@H](C(N)=O)NC(=O)[C@@H](Cc2ccc3ccccc3c2)NC(=O)[C@H](Cc2ccccc2)NC1=O (H-[Dmt][dK]F[d2Nal]D-NH2; lactam 2-5)
- Ki [10]: 1.02 nM
- ED50 [2]: 0.08 µg

SMILES: O=C1N[C@@H](Cc2ccccc2)C(=O)N2CCC[C@@H]2C(=O)N[C@H](Cc2ccccc2)C(=O)N[C@H]1Cc1c[nH]c2ccccc12
- half-life [3]: ≤ 30 min
- ED50 [11]: 125 nmol
- ED50 [4]: 20.4 nmol

SMILES: C[C@@H]1NC(=O)[C@H](Cc2ccccc2)NC(=O)[C@H]2CCCN2C(=O)[C@H](Cc2ccccc2)NC1=O
- Ki [12]: > 10000 nM
- ED50 [4]: 6.97 nmol
- Ki [5]: 687 nM
- Ki [6]: 1550 nM

SMILES: C[C@@H]1NC(=O)[C@@H](Cc2c[nH]c3ccccc23)NC(=O)[C@H](Cc2ccccc2)NC(=O)[C@H]2CCCN2C1=O
- Ki [13]: 3.07 nM
- IC50 [14]: 0.81 nM
- ED50 [4]: 1.99 nmol
- IC50 [15]: 8.08 nM

SMILES: O=C1N[C@@H](Cc2ccccc2)C(=O)N2CCC[C@@H]2C(=O)N[C@@H](Cc2ccccc2)C(=O)N[C@H]1Cc1c[nH]c2ccccc12
- half-life [3]: 49 min
- ED50 [11]: 5.23 nmol
- ED50 [4]: 1.74 nmol

SMILES: NC(=O)[C@H](Cc1ccccc1)NC(=O)[C@H](Cc1ccccc1)NC(=O)[C@@H]1CCCN1C(=O)[C@@H](N)Cc1ccc(O)cc1 [ENDOMORPHIN 2]
- half-life [9]: 0.75 min
- half-life [16]: 8.2 min
- remaining at […] [17]: 0%
- half-life [18]: 15.9 min
- ED50 [2]: 6.88 nmol

SMILES: NC(=O)[C@@H]1CCC(=O)NCCCC[C@@H](NC(=O)[C@@H](N)Cc2ccc(O)cc2)C(=O)N[C@@H](Cc2c[nH]c3ccccc23)C(=O)N[C@@H](Cc2ccccc2)C(=O)N1
- Ki [19]: 83 nM
- ED50 [20]: 0.021 nmol
- Emax [21]: 100%
- Ki [22]: 0.63 nM
- ED50 [8]: 2.2 mg/kg
- EC50 [23]: 0.43 nM

SMILES: CC(C)(C)OC(=O)[C@H](Cc1ccccc1)NC(=O)[C@H](Cc1ccccc1)NC(=O)[C@@H]1CCCN1C(=O)[C@@H](N)Cc1ccc(O)cc1
- half-life [16]: 46 min
- Ki [24]: 247 nM
- ED50 [25]: 3.2 nmol
- Ki [26]: 50.3 nM
- half-life [18]: 72.2 min

SMILES: Cc1cc(O)cc(C)c1C[C@H](N)C(=O)N1Cc2ccccc2C[C@H]1C(=O)N[C@@H](Cc1ccccc1)[C@@H](O)C(=O)N[C@@H](Cc1ccccc1)C(N)=O
- half-life [9]: 120 min

SMILES: CCCCCCCCC(N)C(=O)N[C@@H](Cc1ccc(O)cc1)C(=O)N1CCC[C@H]1C(=O)N[C@@H](Cc1c[nH]c2ccccc12)C(=O)N[C@@H](Cc1ccccc1)C(N)=O (some centres not stated) (H-[ξGly(octyl)]YPWF-NH2)
- EC50 [7]: 31.4 nM
- ED50 [8]: 1.2 µmol/kg

SMILES: COC(=O)[C@H](Cc1ccccc1)NC(=O)[C@H](Cc1ccccc1)NC(=O)[C@@H]1CCCN1C(=O)[C@@H](N)Cc1ccc(O)cc1
- half-life [16]: 30.1 min
- Ki [24]: > 10000 nM
- ED50 [25]: 3 nmol
- Ki [26]: 9.07 nM
- half-life [18]: 47.6 min

SMILES: O=C1N[C@H](Cc2c[nH]c3ccccc23)C(=O)N[C@@H](Cc2ccccc2)C(=O)N2CCC[C@@H]2C(=O)N[C@H]1Cc1ccccc1
- Kb [27]: 20.2 nM
- ED50 [28]: 60 mg/kg
- Ki [29]: 4190 nM
